Test results taken from patent US20090076131A1, “Anti-Cancer and Anti-Inflammatory Effects of Annurca Apple Extracts and Compositions Purified Therefrom” (BAYLOR RESEARCH INSTITUTE, priority 2007, published 2009).

How the values were obtained:
[1] = tested on: p14^ARF; test: mRNA expression by conventional RT-PCR; assay type: cell-based, Human
Protocol: (§1) Conventional RT-PCR was also performed to assess the mRNA expression of p14^ARF 27, p16^INK4a 28, hMLH1^29, DNMT-1^30 and DNMT-3b^31. cDNA was generated with random hexamers using 2 μg of RNA. The PCR was performed as previously reported^32. β-actin was used as an endogenous control. The statistical significance of differences between the experimental points or between groups was analyzed using Student's t-test; and differences were considered significant when P<0.05.

[2] = tested on: p16^INK4a; test: mRNA expression by conventional RT-PCR; assay type: cell-based, Human
Protocol: as §1

## Nc1ncn([C@H]2C[C@H](O)[C@@H](CO)O2)c(=O)n1 [5-aza-2dC, 5-aza-2′deoxycytidine]
[1]; RKO
  p14^ARF RNA transcripts: re-expression
[1]; SW48 cells
  p14^ARF RNA transcripts: appearance of RNA transcripts
[2]; RKO
  p16^INK4a RNA transcripts: re-expression
[2]; SW48 cells
  p16^INK4a RNA transcripts: appearance of RNA transcripts
